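Step 1: Grow cells in 96-well plates. Step 2: Expose to compound for 48 hours at 5 concentrations. Step 3: Interpolate endpoints linearly; if unreached, use highest concentration. TGI is the concentration that stops growth completely.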 Bounds are passed on as bounds.

The first test relates to A498 renal. In words: inhibition of tumour cell growth, NCI panel, 48 h.
Molecule `CC1(C)CCCC2OC2CCC(C)(C)C1=O` (stereo not drawn) gave a TGI of more than 100 µM.
As for `O=C1NCC2(CCN(CCCC3(c4ccc(F)cc4)OCCO3)CC2)N1c1ccccc1`, the TGI is more than 100 µM.
`COc1ccc2c(c1)/C(=C\c1c(Cl)nc3sc(C)cn13)C(=O)N2` showed a TGI of 16.6 µM.
Turning to `O=C1c2ccccc2-c2c1c(-c1ccc(F)cc1)nc1ccc3ccccc3c21`, the TGI is more than 100 µM.
As for `O=C(/C=C/c1ccc2c(c1)OCO2)CC(=O)C(=O)c1c[nH]c2ccccc12`, the TGI was more than 100 µM.
Molecule `O=C(Nc1nccs1)c1c(O)nc2sccn2c1=O` showed a TGI of more than 10 µM.
As to `O=c1[nH]c(=O)n(C2OC(CO)C(O)C2O)c2nc(-c3ccc(-c4ccccc4)cc3)cnc12` (stereo not drawn), the TGI is more than 100 µM.
Still for that read-out and setting: with `CC1=NN(c2cccc(Cl)c2)C2(SCC(=O)N2c2nc3ccccc3s2)/C1=C\c1ccccc1O` (stereo not drawn) the figure was 38.4 µM; with `O=C1NCCN1/N=C/c1c(Cl)n(-c2ccccc2)c2ccccc12`, 45.8 µM.
Same read-out and setting: in the case of `CCCCCCOc1ccc(C(=O)NOC)cc1` it was more than 100 µM.
As for `Cc1c(S(=O)(=O)c2ccccc2)c(N)n(CCN(C)C)c1C`, the TGI was more than 100 µM.
Regarding `N=C(N)SCc1ccc2c(c1)Sc1ccccc1O2`, the TGI is 52.3 µM.
The same measure, in the same setting: with `CC(=O)Nc1nc(C#N)[nH]c1C#N` the figure was more than 100 µM.
On the same count and under the same terms, in the case of `CN(C)c1ccc(C(=N/N=C2\C(=O)Nc3ccccc32)c2ccc(N(C)C)cc2)cc1` it was 16.8 µM; in that of `COc1ccc(-c2nc(SCC(=O)N/N=C/c3ccc(N(C)C)cc3)[nH]c2-c2ccc(OC)cc2)cc1`, more than 100 µM; in that of `CC1=C[C@@H]2Cc3nc4cc(Cl)ccc4c(N)c3[C@H](C1)C2`, 23.4 µM.
With `O=[N+]([O-])C(/C=C(\Cl)n1nnc2ccccc21)=C(/Cl)n1nnc2ccccc21`, the TGI is more than 100 µM.
Still for that read-out and setting: with `c1c[nH]c(-c2ccc(-c3ccc[nH]3)c3nsnc23)c1` the figure was more than 100 µM; with `CSC(=S)N(C)C`, more than 100 µM.
`COc1ccc2c(c1)OCC1Cc3ccccc3OC21` (stereo not drawn) yielded a TGI of more than 10 µM.
`CCOC(=O)c1c(C)nc2c3ccccc3c(C#N)c(C)n12` registered a TGI of more than 100 µM.
Molecule `CCCCC(C(=O)NCCNC(=O)CCC(=O)N(C)O)C(=O)NCCNC(=O)CCC(=O)N(C)O` yielded a TGI of more than 100 µM.
Regarding `O=C(CC(C(=O)c1ccsc1)c1ccc2c(c1)OCO2)c1ccccc1` (stereo not drawn), the TGI was more than 100 µM.
On to `CC1(C)C2CCC1(C)[C@H](n1c(=O)n([C@@H]3CC4CCC3(C)C4(C)C)c(=O)n([C@@H]3CC4CCC3(C)C4(C)C)c1=O)C2`, for which the TGI is more than 100 µM.
The molecule `CSc1nsc(-c2ccccc2)[s+]1` displayed a TGI of more than 100 µM.
The molecule `CC(=N/N=C/c1ccccn1)/C(C)=N/N=C(C)/C(C)=N/N=C(C)/C(C)=N/N=C(C)/C(C)=N\N=C\c1ccccn1` yielded a TGI of more than 100 µM.

The subject of the next test is 786-0 renal. In words: inhibition of tumour cell growth, NCI panel, 48 h.
For the molecule `CC1(C)CCCC2OC2CCC(C)(C)C1=O` (stereo not drawn), the TGI was more than 100 µM.
Still for that read-out and setting: with `O=C1NCC2(CCN(CCCC3(c4ccc(F)cc4)OCCO3)CC2)N1c1ccccc1` the figure was more than 100 µM; with `COc1ccc2c(c1)/C(=C\c1c(Cl)nc3sc(C)cn13)C(=O)N2`, 15.1 µM.
Still for that read-out and setting: with `O=C1c2ccccc2-c2c1c(-c1ccc(F)cc1)nc1ccc3ccccc3c21` the figure was more than 100 µM.
Regarding `O=C(/C=C/c1ccc2c(c1)OCO2)CC(=O)C(=O)c1c[nH]c2ccccc12`, the TGI is more than 100 µM.
For the molecule `O=c1[nH]c(=O)n(C2OC(CO)C(O)C2O)c2nc(-c3ccc(-c4ccccc4)cc3)cnc12` (stereo not drawn), the TGI is more than 100 µM.
Still for that read-out and setting: in the case of `CC1=NN(c2cccc(Cl)c2)C2(SCC(=O)N2c2nc3ccccc3s2)/C1=C\c1ccccc1O` (stereo not drawn) it was 32.3 µM; in that of `O=C1NCCN1/N=C/c1c(Cl)n(-c2ccccc2)c2ccccc12`, 77 µM; in that of `CCCCCCOc1ccc(C(=O)NOC)cc1`, more than 100 µM.
`Cc1c(S(=O)(=O)c2ccccc2)c(N)n(CCN(C)C)c1C` showed a TGI of more than 100 µM.
Consider `N=C(N)SCc1ccc2c(c1)Sc1ccccc1O2`, for which the TGI is 24.6 µM.
In turn, `CC(=O)Nc1nc(C#N)[nH]c1C#N` yielded a TGI of more than 100 µM.
In the case of `CN(C)c1ccc(C(=N/N=C2\C(=O)Nc3ccccc32)c2ccc(N(C)C)cc2)cc1`, the TGI stood at 13.2 µM.
With `COc1ccc(-c2nc(SCC(=O)N/N=C/c3ccc(N(C)C)cc3)[nH]c2-c2ccc(OC)cc2)cc1`, the TGI is more than 100 µM.
Turning to `CC1=C[C@@H]2Cc3nc4cc(Cl)ccc4c(N)c3[C@H](C1)C2`, the TGI was found to be 19 µM.
On to `O=[N+]([O-])C(/C=C(\Cl)n1nnc2ccccc21)=C(/Cl)n1nnc2ccccc21`, for which the TGI is more than 100 µM.
On the same count and under the same terms, in the case of `c1c[nH]c(-c2ccc(-c3ccc[nH]3)c3nsnc23)c1` it was more than 67.6 µM; in that of `CSC(=S)N(C)C`, more than 100 µM; in that of `COc1ccc2c(c1)OCC1Cc3ccccc3OC21` (stereo not drawn), more than 100 µM.
With `CCCCC(C(=O)NCCNC(=O)CCC(=O)N(C)O)C(=O)NCCNC(=O)CCC(=O)N(C)O`, the TGI was more than 100 µM.
As to `O=C(CC(C(=O)c1ccsc1)c1ccc2c(c1)OCO2)c1ccccc1` (stereo not drawn), the TGI is more than 100 µM.
Same read-out and setting: in the case of `CC1(C)C2CCC1(C)[C@H](n1c(=O)n([C@@H]3CC4CCC3(C)C4(C)C)c(=O)n([C@@H]3CC4CCC3(C)C4(C)C)c1=O)C2` it was more than 100 µM; in that of `CSc1nsc(-c2ccccc2)[s+]1`, more than 100 µM; in that of `CC(=N/N=C/c1ccccn1)/C(C)=N/N=C(C)/C(C)=N/N=C(C)/C(C)=N/N=C(C)/C(C)=N\N=C\c1ccccn1`, more than 100 µM.

In a further test the test system is HT29 colon. Put plainly: inhibition of tumour cell growth, NCI panel, 48 h.
With `CC1(C)CCCC2OC2CCC(C)(C)C1=O` (stereo not drawn), the TGI was more than 100 µM.
Regarding `O=C1NCC2(CCN(CCCC3(c4ccc(F)cc4)OCCO3)CC2)N1c1ccccc1`, the TGI is more than 100 µM.
Molecule `COc1ccc2c(c1)/C(=C\c1c(Cl)nc3sc(C)cn13)C(=O)N2` returned a TGI of 12.7 µM.
Still for that read-out and setting: in the case of `O=C1c2ccccc2-c2c1c(-c1ccc(F)cc1)nc1ccc3ccccc3c21` it was more than 100 µM; in that of `O=C(/C=C/c1ccc2c(c1)OCO2)CC(=O)C(=O)c1c[nH]c2ccccc12`, more than 100 µM.
In turn, `O=C(Nc1nccs1)c1c(O)nc2sccn2c1=O` gave a TGI of more than 10 µM.
Molecule `O=c1[nH]c(=O)n(C2OC(CO)C(O)C2O)c2nc(-c3ccc(-c4ccccc4)cc3)cnc12` (stereo not drawn) registered a TGI of more than 100 µM.
Still for that read-out and setting: with `CC1=NN(c2cccc(Cl)c2)C2(SCC(=O)N2c2nc3ccccc3s2)/C1=C\c1ccccc1O` (stereo not drawn) the figure was 67.4 µM; with `O=C1NCCN1/N=C/c1c(Cl)n(-c2ccccc2)c2ccccc12`, 35.3 µM; with `CCCCCCOc1ccc(C(=O)NOC)cc1`, more than 100 µM.
With `Cc1c(S(=O)(=O)c2ccccc2)c(N)n(CCN(C)C)c1C`, the TGI was more than 100 µM.
The same measure, in the same setting: with `N=C(N)SCc1ccc2c(c1)Sc1ccccc1O2` the figure was 8.54 µM; with `CC(=O)Nc1nc(C#N)[nH]c1C#N`, more than 100 µM; with `CN(C)c1ccc(C(=N/N=C2\C(=O)Nc3ccccc32)c2ccc(N(C)C)cc2)cc1`, 4.45 µM.
On the same count and under the same terms, with `COc1ccc(-c2nc(SCC(=O)N/N=C/c3ccc(N(C)C)cc3)[nH]c2-c2ccc(OC)cc2)cc1` the figure was more than 100 µM; with `CC1=C[C@@H]2Cc3nc4cc(Cl)ccc4c(N)c3[C@H](C1)C2`, 13.2 µM.
Same read-out and setting: in the case of `O=[N+]([O-])C(/C=C(\Cl)n1nnc2ccccc21)=C(/Cl)n1nnc2ccccc21` it was more than 100 µM; in that of `c1c[nH]c(-c2ccc(-c3ccc[nH]3)c3nsnc23)c1`, more than 37.8 µM.
